Laboratory results as given in patent publication US5346812A, “Teratogen assay” (priority 1992, dated 1994).
“Also recorded” adds a separate entry of the source. Like-named read-outs stand apart in the source and are kept apart here.

Experiments:
[1] = tested on: 23 kDa heat shock protein gene promoter (hsp23-β-galactosidase hybrid gene); experiment: Drosophila heat shock hybrid gene expression assay (colorimetric beta-galactosidase assay) in primary embryonic cells from transformed flies; conditions: for FOLD INDUCTION OF B-GAL ACTIVITY: Experiment I, strain 700.2 embryonic cells, relative to nontreated cells
Excerpt: A representative hybrid gene in accordance with the above description includes a 23 kDa heat shock protein gene fragment beginning at the Pst I site 1.5 kb upstream from and extending through the transcription start site and the entire RNA leader region to a Pvu II site at codon 45 of the 23 kDa protein coding sequence, inserted upstream from a truncated (at codon 7 or 8) E. coli β-galactosidase gene. It addition, a 2.4-kb-long segment containing 3' nontranslated and nontranscribed sequences from a D. melanogaster 70 kDa heat shock protein gene is placed downstream from the β-galactosidase gene.
For the experiments with teratogens described below, only the 700 lines (see Table 2) were used. These lines carry a hybrid gene controlled by a 554 nucleotide-long segment of the 23 kDa heat shock protein gene promoter.
Preparation of embryos, cultures of primary cells, and incubation with teratogens
1. A creamy paste of yeast is placed on a piece of wet filter paper and such coated paper: deposited on 150 mm food plates. Embryos are then collected on these plates for 3 hours (inside a large fly cage). (For additional details, see the appended Materials and Methods section.)
2. The plates with the embryos are incubated further for 3.5 hours (embryos will reach the gastrulation stage).
3. The filter paper containing yeast is discarded. The plates are flooded with water, the embryos are brushed down, passed through a 1 mm (pore size) mesh and then collected on a 90 μm mesh.
4. Embryos are washed extensively with water. Subsequently they are picked up with a spatula and are placed into a solution of 10 ml chlorox/10 ml ethanol (95%). After a brief incubation, the embryos are transferred to a sintered glass funnel attached to a vacuum line and are washed with several volumes of sterile distilled water, No more than 2 minutes should elapse between the first exposure of the embryos to chlorox-ethanol solution and the beginning of the wash steps.
5. The embryos are then washed in 6 ml of culture medium. It is important to note that the embryos are not allowed to dry out during the wash procedure.
6. The wet embryos are transferred with a blunt spatula into a homogenizer containing 7 ml of culture medium. (Alternatively, they can be washed down into the homogenizer with medium.)
7. Three gentle passes are made with the loose fitting pestle.
8. Cell aggregates are broken up by repeated pipetting with a 1 ml pipette, and the cell suspension is passed through a 53 μm mesh.
9. The filtrate is collected in a 15 ml sterile disposable centrifuge tube and spun at 1800 rpm for 4 minutes (at room temperature).
10. The supernatant is decanted, and the cells are washed once more with 4 ml of medium.
11. The cells are finally suspended in 4 ml medium by repeated pipetting with a 1 ml pipette and are counted on a hemocytometer.
12. The cells are plated in 35 mm dishes at a density of 3.2×10^6cells per 2 ml of medium.
13. Forty-five minutes later the medium is removed from each dish, and 2 ml of fresh medium containing the chemical to be tested for teratogenicity is added. The culture is then incubated at 22° C. for 20 hrs. […] The cells are subsequently processed for the β-galactosidase assay (see below).
1. Cells in 35 mm dishes are washed once with phosphate-buffered saline and are then transferred to 15 ml centrifuge tubes.
2. The cells are collected by centrifugation (clinical centrifuge, 2000 rpm, 5 min) and are taken up in 350 μl of Z buffer (defined below) containing 0.5% of Nonidet NP40. The cells are lysed by repeated pipetting. Lysates are transferred to 1.5 ml Eppendorf tubes.
3. After a 5 minute spin (in the Eppendorf centrifuge) the supernatants are transferred to another set of tubes.
4. To 200 μl of this extract, 275 μl of substrate solution ONPG (4 mg/ml) in Z-buffer is added. The assays are run with straight as well as with diluted extract samples.
5. The reactions are incubated at 37° C. for 30 min.

[2] = shown in animal experiments; cited from earlier work
[3] = tested on: 23 kDa heat shock protein gene promoter (hsp23-β-galactosidase hybrid gene) in S3 cells; experiment: Hybrid gene (23 kDa heat shock protein-β-galactosidase) activity in transfected S3 cells; type: cell-based, Drosophila melanogaster; conditions: for E. coli-specific B-galactosidase, + ecdysterone: 3 μM, ELISA
Excerpt: The Drosophila melanogaster 23 kDa heat shock protein gene has been cloned and characterized by Voellmy et al. (Cell 23:261-270, 1981). Segments containing extensive 5' nontranscribed sequences from the 23 kDa heat shock protein gene, the RNA leader region, and part of the protein-coding region were linked in frame to an E. coli β-galactosidase gene. The resulting constructs encode a hybrid protein with β-galactosidase activity that is made under the control of the linked heat shock gene sequences (Lawson, R., et al., Dev. Biol. […], 1985). These constructs were introduced into Drosophila melanogaster S3 cells (an established cell line) by transfection (Lawson, R., et al., Mol. Gen. Genet. 198:116-124, 1984).
The construction of 23 kDa heat shock protein-β-galactosidase hybrid genes had been described (Lawson, R., et al., Dev. Biol. 110:321-330, 1985). The structure of a representative construct, p523/35, is shown in FIG. 4 (modified from Mestril, R., et al., EMBO J. 5(7):1667-1673, 1986). […] Hybrid gene activity was assessed in cell extracts both by a colorimetric enzymatic assay and by ELISA using antibodies specific for E. coli β-galactosidase (Lawson, R., et al., Dev. Biol. 110:321-330, 1985).
Derivatives of this basic construct that contained 23 kDa heat shock gene promoter sequences of different lengths were prepared, and their activity was tested using heat shock in transfected S3 cells (Mestril, R., et al., EMBO J. 4:2971-2976, Mestril, R., et al., EMBO J. 5:1667-1673, 1986).
A list of the cp20.1 derivatives of hybrid genes with 23 kDA heat shock protein gene promoter segments of different lengths is shown in Table 1. The functionality of the genes was tested in cultured Drosophila melanogaster S3 cells. Transfected cells were either heat-treated (not shown), exposed for one day at 3 μM ecdysterone, or not treated. Levels of β-galactosidase in extracts were measured by the ELISA procedure described in Mestril et al., EMBO J. 5:1667-1673, 1986.
Levels of Bgalactosidase were measured in cell extracts using the ELISA
protocol described in Mestril et al., 1986 (Mestril,R., Schiller,P.,
Amin,J., Klapper,H., Ananthan,J. and Voellmy,R. (1986) EMBO J.

[4] = use by pregnant women; cited from earlier work
[5] = tested on: 23 kDa heat shock protein gene promoter (hsp23-β-galactosidase hybrid gene) in S3 cells; conditions: following exposure to ecdysterone; Lawson et al. 1985; Mestril et al.; cited from earlier work
small heat shock genes = conditions: ecdysterone added to the medium; Ireland et al. 1982; cited from earlier work
[6] = Drosophila melanogaster, 20 h, read-out: FOLD INDUCTION OF B-GAL ACTIVITY
[7] = Drosophila melanogaster, 20 h, read-out: Fold Induction of B-Gal Activity

With `Nc1ncn([C@H]2C[C@H](O)[C@@H](CO)O2)c(=O)n1` [5-DEOXY-2' AZACYTIDINE] the “FOLD INDUCTION OF B-GAL ACTIVITY” value ([1]; 0.01 mM, 20 hrs) was 4 FOLD.
For `CC(=O)Oc1ccccc1C(=O)O` [ACETYL SALICYCLIC ACID], the “FOLD INDUCTION OF B-GAL ACTIVITY” value ([1]; 1.0 mM, 20 hrs) is given as 1.5 FOLD and the “CLASS (teratogen T / nonteratogen NT)” value [2] is given as “weak T”.
With `O=[As](O)(O)O` [ARSENATE] the “FOLD INDUCTION OF B-GAL ACTIVITY” value ([1]; 0.2 mM, 20 hrs) was 8 FOLD.
In the case of `O=c1ccc2ccccc2o1` [COUMARIN], the fold induction at 1000 µM [1, 6] is reported as 5 and the “hybrid gene activity in S3 cells (in words)” value [3] is reported as “did not induce hybrid gene activity”.
For `Cn1c(=O)c2c(ncn2C)n(C)c1=O` [Caffeine], the fold induction at 1000 µM [1, 7] was 1.02.
With `[Cl][Cd][Cl]` [Cd Cl2] the “FOLD INDUCTION OF B-GAL ACTIVITY” value ([1]; 0.25 mM, 20 hrs) was 7 FOLD.
In the case of `CC/C(=C(/CC)c1ccc(O)cc1)c1ccc(O)cc1` [DIETHYL STILBOSTEROL], the fold induction at 10 µM [1, 6] is reported as 7.
With `C[S+](C)[O-]` [DIMETHYL SULFOXIDE] the fold induction at 1000 µM [1, 6] was 1.
Compound `O=C1NC(=O)C(c2ccccc2)(c2ccccc2)N1` [DIPHENYLHYDANTOIN, DIPHENYL-HYDANTOIN] has a fold induction at 100 µM [1, 6] of 2.
For `CCO` [ETHYL ALCOHOL], the fold induction at 160000 µM [1, 6] was 1.2.
In the case of `[Cl][Hg][Cl]` [Hg Cl2], the “FOLD INDUCTION OF B-GAL ACTIVITY” value ([1]; 0.005 mM, 20 hrs) is reported as 3 FOLD.
In the case of `[Pb]` [Lead], the “Fold Induction of B-Gal Activity” value ([1]; Experiment II, 2.5 mM, 20 hrs, relative to nontreated cells (see Table 3)) is reported as 15.78 Fold and the “synthesis of β-galactosidase in primary embryonic cells (in words)” value ([1]; primary embryonic cells from transformed flies) is reported as “directs the synthesis of β-galactosidase”.
In the case of `CC(=O)[C@H]1CC[C@H]2[C@@H]3CCC4=CC(=O)CC[C@]4(C)[C@H]3CC[C@]12C` [PROGESTERONE], the fold induction at 10 µM [1, 6] is reported as 1.
For `CC1=C(/C=C/C(C)=C/C=C/C(C)=C/C(=O)O)C(C)(C)CCC1` [RETINOIC ACID (ALL TRANS)], the fold induction at 50 µM [1, 6] was 5.
For `O=C1CCC(N2C(=O)c3ccccc3C2=O)C(=O)N1` (stereo not shown) [Thalidomide], the “synthesis of β-galactosidase in primary embryonic cells (in words)” value [1] is listed as “directs the synthesis of β-galactosidase”, the fold induction at 1000 µM [1, 7] is listed as 2.73 and the “babies suffering from phocomelia” value [4] is listed as ~10,000 babies.
Compound `CN1C(=O)CN=C(c2ccccc2)c2cc(Cl)ccc21` [Valium] has a fold induction at 1000 µM [1, 7] of 6.5.
With `CC(C)(O)CC[C@@H](O)[C@](C)(O)[C@H]1CC[C@@]2(O)C3=CC(=O)[C@@H]4C[C@@H](O)[C@@H](O)C[C@]4(C)[C@H]3CC[C@]12C` [ecdysterone] the fold induction at 10 µM [1, 6] was 2, the “E. coli-specific B-galactosidase, + ecdysterone” value (shortened to “E. coli-specific B-galactosidase”) ([3]; 63 bp 5' nontranscribed segment, one day, 0.0 without ecdysterone) was 0.1 and the “E. coli-specific B-galactosidase” value ([3]; 147 bp 5' nontranscribed segment, one day) was 0.1. The “E. coli-specific B-galactosidase” value ([3]; 197 bp 5' nontranscribed segment, one day) was 0.1, the “E. coli-specific B-galactosidase” value ([3]; 275 bp 5' nontranscribed segment, one day) was 0.3 and the “E. coli-specific B-galactosidase” value ([3]; 295 bp 5' nontranscribed segment, one day) was 0.6. For the same compound, the “E. coli-specific B-galactosidase” value ([3]; 333 bp 5' nontranscribed segment, one day, 0.0 without ecdysterone) was 1.0, the “E. coli-specific B-galactosidase” value ([3]; 363 bp 5' nontranscribed segment, one day) was 1.1 and the “E. coli-specific B-galactosidase” value ([3]; 379 bp 5' nontranscribed segment, one day, 0.1 without ecdysterone) was 2.0. For the same compound, the “E. coli-specific B-galactosidase” value ([3]; 554 bp 5' nontranscribed segment, one day) was 1.0, the “hybrid gene activity of constructs (in words)” value ([3]; several constructs, longest promoter segments, 3 μM ecdysterone, one day, inactive in untreated cells) was “active” and the “synthesis of β-galactosidase in transfected S3 cells (in words)” value [5] was “produced E. coli-specific β-galactosidase; also recorded: directed the synthesis of β-galactosidase”. The “activation of the small heat shock genes (in words)” value (small heat shock genes) was “activation of the genes”.
